Laboratory results reported in article doi:10.1101/2023.07.11.548539v1, “A side-by-side comparison of peptide-delivered antisense antibiotics employing different nucleotide mimics” (bioRxiv, 2023).
Oligonucleotides are written 5' to 3', each unit as a sugar letter and its base; * is a phosphorothioate linkage, no mark a phosphodiester; rarer units and linkages stand in square brackets, end groups in braces. Plain capitals give the bases only. d = 2'-deoxy (DNA)

Experiments:
[1] = tested on: Cy5 5'-labelled acpP target RNA (40 nt); assay: Electrophoretic mobility shift assay (EMSA); assay type: binding, Salmonella enterica; conditions: unconjugated ASO; ASO:RNA 1.25:1 and 2.5:1, 30 min RT, native 15 % PAGE
Experimental: The electrophoretic mobility shift (EMSA) assay was performed with a Cy5 5’-labelled RNA (purchased from Eurofins) encompassing the sequence spanning nucleotides −20 to +20 of acpP relative to the translation start codon. For annealing, TM buffer (10 mM Tris-HCl, 50 mM MgCl2) was used. First, 20 µM RNA was denatured by incubation at 95 °C for 5 min followed by placement on ice. Then 1 µL of RNA was added to PCR tubes containing 8 µL of water. To this 1 µL of ASOs at the indicated concentrations (25 µM or 50 µM) were added to adjust ASO:RNA ratios of 1.25:1 and 2.5:1. As untreated negative control water was added instead of ASO, while a scrambled PNA sequence served as sequence-unspecific negative control (Figure 2 and Figure S2). These mixtures were incubated for 30 min at room temperature (RT), followed by the addition of 10 µL 2x Gel Loading (GL) buffer for subsequent loading on native 15 % PAA RNA gel without urea (20 µL/sample; 6 µL of a 50 bp DNA marker + 14 µL 1x GL). The gel was run at 100-120 V for 2-3 h, concomitantly stained with ethidium bromide for 15 min and imaged on Geldoc (Isogen Life Science B.V., De Meern, the Netherlands).

Salmonella = assay: RNA-seq, global transcriptome (PCA); assay type: cell-based, Salmonella enterica serovar Typhimurium strain SL1344; conditions: 5 µM KFF-ASO conjugate or peptide, 15 min; two independent RNA-seq experiments
Experimental: RNA isolation was performed using previously published protocols ([30],[31]). Bacterial overnight cultures were diluted 1:100 in fresh MHB and grown to OD600 0.5. The cultures were diluted to approximately 10^6 cfu/ml in non-cation-adjusted MHB. Afterwards, an aliquot of the bacterial solution was transferred into 5 ml low-binding tubes (LABsolute) containing the ASOs solution (adjusted such that the final concentration was 5 μM for all tested compounds). As a negative control, cells were treated with the respective volume of sterile nuclease-free water, which was used as solvent for the ASOs. After incubating the samples for 15 min at 37 °C, RNAprotect Bacteria (Qiagen) was added according to the manufacturer’s instructions. Following a 10-min incubation, cells were pelleted at 4 °C and 21,100 × g for 20 min. The supernatant was discarded and pellets were either directly used or stored at –20°C (<1 day) for subsequent bacterial RNA isolation.
Total RNA was purified from bacterial pellets using the miRNeasy Mini kit (Qiagen) according to protocol #3 described in ([30]). Briefly, cells were resuspended in 0.5 mg/ml lysozyme (Roth) in TE buffer (pH 8.0) and incubated for 5 min. Afterwards, RLT buffer supplemented with β-mercaptoethanol, and ethanol were added according to the manufacturer’s instructions. After sample loading, column wash-steps were performed according to the manual. RNA concentration was measured with a NanoDrop spectrophotometer.
(§1) For transcriptomic analyses, RNA samples were processed and subjected to RNA-seq at Core Unit SysMed (University of Würzburg, Germany). Sequencing was run using a previously published protocol ([31]). […] Sequencing of pooled libraries, spiked with 5% PhiX control library, was performed at 10 million reads/sample in single-end mode with 75 nt read length on the NextSeq 500 platform (Illumina) using High output sequencing kits. […]
RNA-seq data analysis was performed similarly to our previous analysis of PNA activity in S. enterica ([30]). Briefly, adapters and low-quality bases (Phred quality score <10) of raw reads were trimmed using BBduk. Then the RNA-seq reads were mapped to the S. enterica serovar Typhimurium reference genome and the three plasmids pSLT SL1344, pCol1B9 SL1344, and pRSF1010 SL1344 ([37]) using BBMap (v38.18) and genomic features were assigned using the featureCounts command of the Subread (2.0.1) package ([38]). […]
Downstream RNA-seq analysis was performed using packages from the R/Bioconductor project. Raw read counts of all conditions were imported into edgeR (v3.34.1) ([40]) and analysed for differential expression. To filter low-count reads, features with less than 1.38 counts per million (CPM) in at least 5 libraries were ignored for further analysis. […]

[2] = tested on: fabF (3-oxoacyl-[acyl carrier protein] synthase 2) transcript; assay: RNA-seq, fabF transcript; assay type: cell-based, Salmonella enterica serovar Typhimurium strain SL1344; conditions: 5 µM KFF-ASO conjugate, 15 min
Experimental: RNA isolation was performed using previously published protocols ([30],[31]). Bacterial overnight cultures were diluted 1:100 in fresh MHB and grown to OD600 0.5. The cultures were diluted to approximately 10^6 cfu/ml in non-cation-adjusted MHB. Afterwards, an aliquot of the bacterial solution was transferred into 5 ml low-binding tubes (LABsolute) containing the ASOs solution (adjusted such that the final concentration was 5 μM for all tested compounds). As a negative control, cells were treated with the respective volume of sterile nuclease-free water, which was used as solvent for the ASOs. […]
Total RNA was purified from bacterial pellets using the miRNeasy Mini kit (Qiagen) according to protocol #3 described in ([30]). […] RNA concentration was measured with a NanoDrop spectrophotometer.
as §1, with “Germany).” for “Germany). Sequencing was run using a previously published protocol ([31]).”
RNA-seq data analysis was performed similarly to our previous analysis of PNA activity in S. enterica ([30]). Briefly, adapters and low-quality bases (Phred quality score <10) of raw reads were trimmed using BBduk. […]

## DNA-PTO: 10mer phosphorothioate-modified DNA antisense oligomer, sequence CTCATACTCT, targeting acpP (antisense dC*dT*dC*dA*dT*dA*dC*dT*dC*dT)
[1]
  Hybridization to target RNA (band shift): did not interact with the target mRNA

## PMO: 10mer phosphorodiamidate morpholino antisense oligomer, sequence CTCATACTCT, targeting acpP (all phosphorodiamidate morpholino (PMO))
Salmonella
  PCA cluster of the transcriptomic response: cluster 3
[2]
  fabF transcript level: Reduction

## PNA: 10mer peptide nucleic acid antisense oligomer, sequence CTCATACTCT, targeting acpP (all peptide nucleic acid (PNA))
Salmonella
  PCA cluster of the transcriptomic response: cluster 1
[2]
  fabF transcript level: Reduction

## RNA-MOE: 10mer 2'-methoxyethylated RNA antisense oligomer, sequence CTCATACTCT, targeting acpP (all 2'-MOE, backbone and methylation of C not given here)
Salmonella
  PCA cluster of the transcriptomic response: cluster 1

## RNA-OMe: 10mer 2'-methylated RNA antisense oligomer, sequence CTCATACTCT, targeting acpP (all 2'-O-methyl, backbone and T or U not given here)
Salmonella
  PCA cluster of the transcriptomic response: cluster 1
